Experimental findings from patent publication US20230210877A1, “A Composition for Management of COVID-19 and Associated Disorders” (priority 2020, published 2023) are described below.

This assay deals with isoproterenol induced myocardial infarction. Briefly: isoproterenol induced myocardial infarction rat model. Format: in vivo. Set-up: TNF-A: unit not given here. The conditions noted are these: rats, isoproterenol 90 mg/kg bwt. + treatment 138 mg/kg bwt. (total).

As for `O=C(O[C@@H]1Cc2c(O)cc(O)cc2O[C@@H]1c1cc(O)c(O)c(O)c1)c1cc(O)c(O)c(O)c1` [EGCG, Epigallocatechin gallate], the GOT was determined as 139.15, the GPT worked out at 75.30 and the TNF-A is given as 408.29.
In the case of `O=c1c(O)c(-c2ccc(O)c(O)c2)oc2cc(O)cc(O)c12` [Quercetin], the GOT turned out to be 103.33, the GPT is 90.47, the LDH was determined as 121.00 and the TNF-A stood at 411.70.
For the molecule `O=C(O)[C@H]1O[C@@H](Oc2cc3oc(-c4ccccc4)cc(=O)c3c(O)c2O)[C@H](O)[C@@H](O)[C@@H]1O` [Biacalin, Baicalin], the GOT stood at 110.37, the GPT was 79.57, the LDH was determined as 138.67 and the TNF-A is given as 438.58.
